The subject of series [1] is brain lesions associated with progression of MS. Kind of series: Study of sixty patients with chronic multiple sclerosis: MRI brain lesions after one year of treatment. The series is classed as in vivo. The settings on record: seven days once per month for one year, MRI at month 12. On the procedure: A study of sixty patients with chronic multiple sclerosis is undertaken. Each patient is first examined for normal hepatic, renal, and bone marrow functioning to establish baseline values. [table] Each of the patients in Groups 2-4 and 8-10 is treated with 2-CdA dissolved in sterile preservative-free isotonic saline, whereas patients in Groups 1 and 5-7 receive a placebo (saline). The 2-CdA is administered intravenously for a total of seven days, once per month for a total of one year. Each of the patients in Groups 5-10 is treated with natalizumab, whereas Groups 1-4 received placebo (saline). The natalizumab is administered intravenously for a total of seven days, once per month for a total of one year, with the treatment being on the same day as 2-CdA treatment. Patients are monitored to determine whether there is any progression or improvement of brain lesions associated with progression of MS. All patients have a baseline and MRI study (brain or spinal cord, according to localization of the lesions) at month 12.

For series [2], the system named is MRI-measured brain lesions. The settings on record: MS patients, cited from earlier work.

With `Nc1nc(Cl)nc2c1ncn2[C@H]1C[C@H](O)[C@@H](CO)O1` [2-CdA, 2-chloro-2′-deoxyadenosine], the “change in brain lesions (MRI)” value in series [1] (Group 2: 2-CdA 0.25 mg/kg i.v.) is “increase in brain lesions”; in series [1] (Group 3: 2-CdA 0.5 mg/kg i.v.) it was “increase in brain lesions”; in series [1] (Group 4: 2-CdA 1 mg/kg i.v.) it was “decrease in brain lesions”. For the same compound, in series [2] (Phase II study as printed (Rice et al., 2000)), the MRI-measured brain lesions entry was “significantly reduced MRI-measured brain lesions”. Besides, the adverse effects result in series [2] (observed with the highest doses) is on record as “increased incidence of infections related to compromised immune function or myelosuppression”.
As to “natalizumab: anti-alpha-4 integrin antibody used as the second agent in Example 1”, the “change in brain lesions (MRI)” value in series [1] (Group 5: natalizumab 1 mg/kg i.v.) is on record as “increase in brain lesions”; in series [1] (Group 6: natalizumab 3 mg/kg i.v.) it was “decrease in brain lesions”; in series [1] (Group 7: natalizumab 6 mg/kg i.v.) it was “decrease in brain lesions”.

The record behind these values is patent publication US20100129353A1, “COMBINATION AND TREATMENT FOR MULTIPLE SCLEROSIS” (Laboratoires Serono S.A., priority 2004, published 2010).
